Consider twelve compounds from patent US20230413808A1, “Bioactive complexes” (priority 2020, published 2023).

SMILES strings stand for the structures.

Common to all, as to format: physicochemical
One series is described as follows: Humectancy assay. Particulars: dried at 54° C., then 97% relative humidity at 25° C.; weight after/before x 100. Here is the method: The complexes of the interaction assay were used to conduct a humectancy assay. […] After reweighing on an analytical balance, the trays were placed in a climate chamber and stored for at least 2 days at 54° C. or until no further weight change was observed. […] The air tight box was 20 cm×12 cm×7 cm. In the box a chicken wire construct was used to create two levels with 10-20 ml of saturated solution of dipotassium sulfate in a petri dish in a lower level, and the samples in an upper level. Boxes were located into an incubator at 25° C. The boxes were incubated for at least 5 days at 25° C. before use to allow equilibration of temperature and humidity. Hereafter, the trays were reweighed.
The change in humectancy by combining a pesticide and polyelectrolyte is expressed as percent value by multiplying the sample weight after incubation (w2) with 100 divided with the sample weight before incubation (w1) using the following equation: […]
To evaluate the effect of the interaction of the active ingredient and polyelectrolyte on humectancy (synergetic/antagonistic/no effect), the determined Humectancy of the samples containing both active ingredient and polyelectrolyte “Humectancy (blend)” was divided by the theoretical value of Humectancy of the blend provided by respective proportion (% AI; % PE) of each pesticide and polyelectrolyte using the following equation: […]
According to this formula, a positive result of more than 1 is indicative of synergy.
The complexes obtained with the method of WO2010035118, with both ratios of 2:1 and 1:5 (PAA:AI) were tested for humectancy. […] For each sample, the test was carried in triplicate.
For each sample, the test was carried in triplicate.

Series [1] in a line: Visual interaction of active ingredient with polyelectrolyte PAA. As to the method:
(§1) To determine interaction between polyelectrolytes (PE; Table 1) and active ingredients (AI; Table 2) aqueous stock solutions of about 200 g/L of the PE and of the active ingredients were prepared. The polyelectrolytes were diluted in water and stirred on magnetic stirrer for at least 30 minutes until a homogenous clear solution was obtained (ratios and amounts are presented in Table 4). The active ingredients were dissolved in water on magnetic stirrer or, if they weren't water soluble, suspended in water and milled by adding glass beads (1 mm) in a stainless steel metal beaker until they reach a volume-based average particle size below 20 μm (90% of particles below 20 μm), as determined by laser diffraction. After that the mixture was filtered with a sieve to remove glass beads and the filtrate was used for further analysis.
(§2) A polyelectrolyte solution, PAA or chitosan, was added to a 100-150 mL glass beaker, followed by water and an active ingredient solution/suspension. The mixture was stirred for at least 4 hours, and samples were observed after at least 16 hours. The visual observable interactions were divided into five categories (see Table 3). The categories were chosen by comparison to a blank sample containing the same concentration of active ingredient in water but without polyelectrolyte. […] Interactions were studied over a large range of active ingredient to polyelectrolyte ratios, including 10.000:1 (w/w), 1000:1 (w/w), 100:1 (w/w), 10:1 (w/w), 1:1 (w/w), 1:10 (w/w), 1:100 (w/w) and 1:1000) (w/w).

Series [2] can be described thus: Visual interaction with polyanion sodium lignosulfonate. As to conditions: visible complex formation.
The nature of series [3]: Visual interaction of active ingredient with chitosan. Set-up: key to Visual observation category, Active ingredient: chitosan: P: Formation of a precipitate; G: Formation of a gel; C: Formation of a coacervate; V: Increase/decrease of the sediment volume; S: Decrease of solid by increase of solved active ingredient; No visual observable interaction. As to the method: as §1, §2

The mark [4] stands for this setting: ratio active ingredient:PAA 1:1 (w/w).
Where [5] appears, read: ratio active ingredient:PAA 1:1000 (w/w).
Setting [6] is: ratio active ingredient:PAA 10.000:1 (w/w).
The mark [7] stands for this setting: ratio active ingredient:chitosan 1.000:1 (w/w).
The mark [8] stands for this setting: ratio active ingredient:chitosan 1:1 (w/w).
The mark [9] stands for this setting: ratio active ingredient:chitosan 1:10 (w/w).
Where [10] appears, read: ratio active ingredient:chitosan 1:100 (w/w).
[11] abbreviates: ratio active ingredient:chitosan 2:1 (w/w).
[12] abbreviates: ratio active ingredient:chitosan 5:1 (w/w).
[13] abbreviates: ratio active ingredient:chitosan 10.000:1 (w/w).
Where [14] appears, read: ratio active ingredient:chitosan 10:1 (w/w).
The mark [15] stands for this setting: ratio active ingredient:chitosan 100:1 (w/w).
Where [16] appears, read: ratio active ingredient:PAA 1.000:1 (w/w).
Where [17] appears, read: ratio active ingredient:PAA 1:10 (w/w).
[18] abbreviates: ratio active ingredient:PAA 1:100 (w/w).
[19] abbreviates: ratio active ingredient:PAA 100:1 (w/w).

Regarding `O=C(O)COc1ccc(Cl)cc1Cl` [2,4D, 2-(2,4-dichlorophenoxy)acetic acid], in “Humectancy assay”, the Humectancy is 212.7%. Besides, the “Visual observation category, Active ingredient: PAA” value (“Visual observation category … PAA” for short) in series [1] (setting [4]) is “G/P”; in series [1] (setting [5]) it was “N”; in series [1] (setting [6]) it was “N”. The “Interaction with the polyanion sodium lignosulfonate” value in series [2] is listed as “did not form a visible complex”. Also, the “Visual observation category, Active ingredient: chitosan” value (shortened to “Visual observation category … chitosan”) in series [3] (setting [7]) is “N”; in series [3] (setting [8]), “P”; in series [3] (setting [9]), “N”; in series [3] (setting [10]) it was “N”; in series [3] (setting [11]), “P”; in series [3] (setting [12]), “P”. The figures for the “Visual observation category … chitosan” value in series [3] (setting [13]), in series [3] (setting [14]) and in series [3] (setting [15]) were “N”, “P” and “P”, respectively.
As for `N.N.O=[PH](O)O` [(NH4)2HPO3], the “Visual observation category … PAA” value in series [1] (setting [16]), in series [1] (setting [17]), in series [1] (setting [18]), in series [1] (setting [6]) and in series [1] (setting [19]) was “N” throughout. The “Interaction with the polyanion sodium lignosulfonate” value in series [2] is recorded as “did not form a visible complex”.
As for `CNC(=N[N+](=O)[O-])NCc1cnc(Cl)s1` [Clothianidin, 1-[(2-chloro-1,3-thiazol-5-yl)methyl]-3-methyl-2-nitroguanidine], the Humectancy in “Humectancy assay” is given as 120.0%. Moreover, the “Visual observation category … PAA” value in series [1] (setting [17]), in series [1] (setting [18]), in series [1] (setting [5]) and in series [1] (setting [6]) was “N” each time.
With `COc1c(Cl)ccc(Cl)c1C(=O)O` [Dicamba, 3,6-dichloro-2-methoxybenzoic acid], the “Visual observation category … PAA” value in series [1] (setting [17]), in series [1] (setting [18]) and in series [1] (ratio active ingredient:PAA 100.000:1 (w/w)) was “N” throughout. Also, in series [2], the “Interaction with the polyanion sodium lignosulfonate” value was “did not form a visible complex”. Besides, the “Visual observation category … chitosan” value is recorded as “P” in series [3] (setting [7]); “N” in series [3] (setting [8]); “N” in series [3] (setting [9]); “N” in series [3] (setting [10]); “N” in series [3] (setting [11]); “P” in series [3] (setting [12]). Besides, the “Visual observation category … chitosan” value in series [3] (setting [13]) is “N”; in series [3] (setting [14]), “P”; in series [3] (setting [15]), “P”.
Consider `CCO[PH](=O)O` [Fosetyl Al], for which, in the series “Humectancy assay”, the Humectancy was determined as 137.0%. Further, the “Visual observation category … PAA” value in series [1] (setting [17]), in series [1] (setting [18]) and in series [1] (setting [5]) was “N” throughout. In addition, the “Ratios at which active ingredient interacted (w/w; active ingredient:polycation)” value in series [1] (summary of Table 4) is reported as “from 10.000:1 to 1:1”.
Take `O=[N+]([O-])/N=C1\NCCN1Cc1ccc(Cl)nc1` [Imidacloprid, (NE)-N-[1-[(6-chloropyridin-3-yl)methyl]imidazolidin-2-ylidene]nitramide]: the Humectancy in “Humectancy assay” is reported as 108.4%. Further, the “Visual observation category … PAA” value is on record as “N” in series [1] (setting [4]); “N” in series [1] (setting [17]); “N” in series [1] (setting [18]); “N” in series [1] (ratio active ingredient:PAA 2:1 (w/w)); “No” in series [1] (ratio active ingredient:PAA 5:1 (w/w)); “N” in series [1] (setting [6]).
Regarding `O=[PH]([O-])[O-].[K+].[K+]` [K2HPO3], the “Visual observation category … PAA” value in series [1] (setting [16]), in series [1] (setting [17]), in series [1] (setting [18]), in series [1] (setting [6]) and in series [1] (setting [19]) was “N” each time. Moreover, the “Interaction with the polyanion sodium lignosulfonate” value in series [2] was “did not form a visible complex”.
In the case of `O=[PH]([O-])[O-].[Na+].[Na+]` [Na2HPO3], the “Visual observation category … PAA” value in series [1] (setting [16]), in series [1] (setting [17]), in series [1] (setting [18]), in series [1] (setting [6]) and in series [1] (setting [19]) was “N” each time. In series [2], the “Interaction with the polyanion sodium lignosulfonate” value is reported as “did not form a visible complex”.
Turning to `C[C@@H]1C/C=C/C=C/C=C/C=C/[C@H](O[C@@H]2O[C@H](C)[C@@H](O)[C@H](N)[C@@H]2O)C[C@@H]2O[C@](O)(C[C@@H](O)C[C@H]3O[C@@H]3/C=C/C(=O)O1)C[C@H](O)[C@H]2C(=O)O` [Natamycin, (1R,3S,5R,7R,8E,12R,14E,16E,18E,20E,22R,24S,25R,26S)-22-[(2R,3S,4S,5S,6R)-4-amino-3,5-dihydroxy-6-methyloxan-2-yl]oxy-1,3,26-trihydroxy-12-methyl-10-oxo-6,11,28-trioxatricyclo[22.3.1.05,7]octacosa-8,14,16,18,20-pentaene-25-carboxylic acid], the “Visual observation category … PAA” value in series [1] (setting [16]), in series [1] (setting [17]) and in series [1] (setting [18]) was “N” in each case. Also, in series [3], the Interaction with chitosan result is on record as “interact”.
As to `CCCCCCCCC(=O)O` [Pelargonic acid, nonanoic acid], the “Visual observation category … PAA” value in series [1] (setting [18]), in series [1] (setting [5]) and in series [1] (setting [6]) was “N” each time. For the same compound, in series [2], the “Interaction with the polyanion sodium lignosulfonate” value is recorded as “did not form a visible complex”.
Consider `O=C(O)[C@@H]1CCCN1` [Proline], for which the “Visual observation category … PAA” value in series [1] (setting [16]), in series [1] (setting [4]), in series [1] (setting [17]), in series [1] (setting [18]), in series [1] (setting [5]) and in series [1] (setting [6]) was “N” throughout. Besides, the “Visual observation category … PAA” value in series [1] (ratio active ingredient:PAA 10:1 (w/w)) and in series [1] (setting [19]) was “N” each time.
Regarding `O=C1c2ccccc2C(=O)N1SC(Cl)(Cl)Cl` [folpet, N-(trichloromethylthio)phthalimide], the “Interaction with the polycation PAA” value in series [1] is “interacts over a large range of ratio's”.
